# Laboratory results: US20100240612A1, “Prenylated Bisphosphonates as Anti-tuberculosis Agents” (priority 2009, published 2010)
# Legend:
# [1] = system: Mycobacterium Smegmatis (ATCC 607); test: Test B: Inhibition of Growth of the Bacterium M. Smegmatis; format: cell-based; conditions: grown in the presence of drug for 2 days, absorbance at 540 nm or CFU; result in words, data only in FIG. 3, versus Isoniazid
# Method: Mycobacterium Smegmatis (ATCC 607) was obtained from American Type Culture Collection and cultured in 7H9 broth (Sigma) containing ADC (Sigma), 0.5% glycerol, and 0.05% Tween-80. Bacteria were grown to log phase and then diluted, aliquoted, and grown in the presence of indicated drugs for 2 days. Growth was measured as a function of optical absorbance at 540 nm using a spectrophotometer. Alternatively, aliquots of liquid cultures were spread onto agar containing plates, which were then grown for 2 days, after which the number of colony forming units (CFU) were counted and normalized per mL.
# [2] = target: T1, mycobacterial polyprenyl synthase (RV2361c) (Mycobacterium tuberculosis, UniProt P9WFF7); test: Test A: Inhibition of Mycobacterial Polyprenyl Synthase (RV2361c); format: biochemical; conditions: result in words, data only in FIG. 1/FIG. 2
# T1 sequence (P9WFF7 1-296): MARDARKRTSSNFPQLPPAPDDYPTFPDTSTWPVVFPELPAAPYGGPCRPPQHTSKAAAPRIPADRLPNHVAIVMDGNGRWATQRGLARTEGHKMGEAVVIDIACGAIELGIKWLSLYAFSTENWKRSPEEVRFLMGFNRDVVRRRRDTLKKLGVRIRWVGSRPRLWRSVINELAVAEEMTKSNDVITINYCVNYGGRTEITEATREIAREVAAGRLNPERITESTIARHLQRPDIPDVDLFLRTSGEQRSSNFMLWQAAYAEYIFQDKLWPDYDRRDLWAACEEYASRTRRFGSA
Structure (SMILES),inhibition of growth of the bacterium M. Smegmatis [1],inhibition of purified mycobacterial polyprenyl synthase (RV2361c) [2]
COC(=O)c1ccccc1NC/C(C)=C/CC/C(C)=C/CC(P(=O)(OCOC(=O)C(C)(C)C)OCOC(=O)C(C)(C)C)P(=O)(OCOC(=O)C(C)(C)C)OCOC(=O)C(C)(C)C [compound 24],inhibition of growth,–
"CC(C)=CCc1ccc(CC(P(=O)([O-])[O-])P(=O)([O-])[O-])cc1.[Na+].[Na+].[Na+].[Na+] [compound 13, p-Prenyl-phenethylidene bisphosphonic acid tetra sodium salt]",–,inhibition
